Assays:
Type in all cases: biochemical
[1] = target: T1, human recombinant AR (hAR) (Homo sapiens, UniProt P15121); test: Aldose reductase assay, GSHNE reduction; conditions: up to 100 mM in the assay mixture; different substrate concentrations
T1 construct: made in house
Protocol: (§1) The AR activity was determined at 37 °C as previously described, following the decrease in absorbance at 340 nm due to NADPH oxidation (ε 340 = 6.22 mM^−1·cm^−1) through a Biochrom Libra S60 spectrophotometer (Biochrom, Cambridge, United Kingdom). The standard assay mixture contained a 0.25 M sodium phosphate buffer pH 6.8, 0.18 mM NADPH, 0.4 M ammonium sulphate, 0.5 mM EDTA and 4.7 mM GAL. One unit of enzyme activity is the amount that catalyses the conversion of 1 µmol of substrate/min in the above assay conditions. These assay conditions were also adopted to assess the effectiveness of inhibitors when L-idose, trans-4-hydroxy-2,3-nonenal (HNE), or 3-glutathionyl-4-hydroxynonenal (GSHNE) was used as a substrate instead of GAL.
The human recombinant AR (hAR) was expressed and purified as previously described. […] The specific activity of purified hAR was 5.3 U/mg. The purified enzyme was stored at −80 °C in a 10 mM sodium phosphate buffer pH 7.0 containing 2 mM DTT and 30% (w/v) glycerol. Before use, the enzyme was extensively dialysed against a 10 mM sodium phosphate buffer pH 7.0.
The protein concentration was determined according to Bradford[35], using BSA as a standard protein. HNE was prepared as previously described. […] The residual GSH was determined as previously described.

[2] = target: T1, human recombinant AR (hAR); test: Aldose reductase assay, HNE reduction (NADPH oxidation at 340 nm); conditions: for Inhibition model / Ki′: substrate HNE
Protocol: as §1
(§2) The human recombinant AR (hAR) was expressed and purified as previously described. […] The purified enzyme was stored at −80 °C in a 10 mM sodium phosphate buffer pH 7.0 containing 2 mM DTT and 30% (w/v) glycerol. Before use, the enzyme was extensively dialysed against a 10 mM sodium phosphate buffer pH 7.0.
The protein concentration was determined according to Bradford[35], using BSA as a standard protein. HNE was prepared as previously described. GSHNE was prepared as previously described[37] by incubation of GSH and HNE, monitoring the time course of GSH consumption. The residual GSH was determined as previously described.

[3] = target: T1, human recombinant AR (hAR); test: Aldose reductase assay, GAL reduction
Protocol: (§3) One unit of enzyme activity is the amount that catalyses the conversion of 1 µmol of substrate/min in the above assay conditions. These assay conditions were also adopted to assess the effectiveness of inhibitors when L-idose, trans-4-hydroxy-2,3-nonenal (HNE), or 3-glutathionyl-4-hydroxynonenal (GSHNE) was used as a substrate instead of GAL.
as §2

[4] = target: T1, human recombinant AR (hAR); test: Aldose reductase assay, L-idose reduction (NADPH oxidation at 340 nm); conditions: for Inhibition model / Ki / Ki′: substrate L-idose
Protocol: as §3, §2

[5] = DMSO 40 mM, apparent, ESI complex
[6] = DMSO 100 mM, apparent, ESI complex
[7] = DMSO 200 mM, apparent, ESI complex
[8] = No DMSO, dissociation constant of ESI complex

Inhibition model [2] | effect on the reduction of GAL catalysed by AR [3] | Inhibition model [4] | Ki′ [2, 5] [µM] | Ki′ [2, 6] [µM] | Ki′ [2, 7] [µM] | Ki′ [2, 8] [µM] | Ki′ [4, 5] [µM] | Ki′ [4, 6] [µM] | Ki′ [4, 7] [µM] | Ki′ [4, 8] [µM] | Inhibition model ([2]; listed as rutin) | Inhibition model ([4]; listed as rutin) | Structure (SMILES) | effect on enzyme activity with GSHNE as substrate [1] | Ki ([4]; DMSO 40 mM, apparent) [µM] | Ki ([4]; DMSO 100 mM, apparent) [µM] | Ki ([4]; DMSO 200 mM, apparent) [µM] | Ki ([4]; No DMSO) [µM] | inhibition of AR activity ([2]; 0.7% (v/v) (approximately 0.17 M), HNE 40–110 µM) | inhibition of AR activity ([4]; 0.7% (v/v) (approximately 0.17 M), L-idose 0.4–4 mM)
mixed type of inhibition | no effect | competitive inhibition | – | – | – | – | – | – | – | – | – | – | C[S+](C)[O-] [DMSO, dimethyl sulfoxide] | no effect of interference on the enzyme activity | – | – | – | – | – | –
Mixed | – | Mixed | 64.7 ± 1.4 | 73.4 ± 7.5 | 99.5 ± 7.3 | 56.5 ± 4.5 | 62.9 ± 2.3 | 50.3 ± 4.8 | 60.9 ± 2.1 | 52.5 ± 3.8 | – | – | O=C(CCc1ccc(O)cc1)c1c(O)cc(O)cc1O [Phloretin, phloretin] | – | – | – | – | – | – | –
Uncompetitive | – | Mixed | 10.5 ± 2.0 | 12.8 ± 1.9 | 16.5 ± 1.9 | 9.2 ± 0.9 | 7.6 ± 1.2 | 11.7 ± 0.5 | 12.7 ± 2.0 | 9.3 ± 1.1 | uncompetitive inhibitors | mixed inhibitors | C[C@@H]1O[C@@H](OC[C@H]2O[C@@H](Oc3c(-c4ccc(O)c(O)c4)oc4cc(O)cc(O)c4c3=O)[C@H](O)[C@@H](O)[C@@H]2O)[C@H](O)[C@H](O)[C@H]1O [Rutin, rutin] | – | 20.3 ± 1.1 | 24.8 ± 3.8 | 45.6 ± 5.5 | 17.8 ± 3 | – | –
– | – | – | – | – | – | – | – | – | – | – | – | – | CO [methanol] | – | – | – | – | – | less than 5% | less than 5%

Structure (SMILES) | Inhibition model [2] | effect on the reduction of GAL catalysed by AR [3] | Inhibition model [4] | Ki′ [2, 5] [µM] | Ki′ [2, 6] [µM] | Ki′ [2, 7] [µM] | Ki′ [2, 8] [µM] | Ki′ [4, 5] [µM] | Ki′ [4, 6] [µM] | Ki′ [4, 7] [µM] | Ki′ [4, 8] [µM] | Inhibition model ([2]; listed as rutin) | Inhibition model ([4]; listed as rutin) | effect on enzyme activity with GSHNE as substrate [1] | Ki ([4]; DMSO 40 mM, apparent) [µM] | Ki ([4]; DMSO 100 mM, apparent) [µM] | Ki ([4]; DMSO 200 mM, apparent) [µM] | Ki ([4]; No DMSO) [µM] | inhibition of AR activity ([2]; 0.7% (v/v) (approximately 0.17 M), HNE 40–110 µM) | inhibition of AR activity ([4]; 0.7% (v/v) (approximately 0.17 M), L-idose 0.4–4 mM)
COc1ccc(CCC(=O)c2c(O)cc(O[C@@H]3O[C@H](CO)[C@@H](O)[C@H](O)[C@H]3O[C@@H]3O[C@@H](C)[C@H](O)[C@@H](O)[C@H]3O)cc2O)cc1O [NHDC, neohesperidin dihydrochalcone] | uncompetitive inhibitors | – | mixed inhibitors | 134 ± 11 | 150 ± 22 | 199 ± 6 | 122 ± 19 | 286 ± 53 | 230 ± 35 | 283 ± 2 | 292 ± 17 | – | – | – | 114 ± 15 | 125 ± 16 | 194 ± 17 | 93 ± 17 | – | –

From paper PMC6009938, “The use of dimethylsulfoxide as a solvent in enzyme inhibition studies: the case of aldose reductase” (Journal of Enzyme Inhibition and Medicinal Chemistry, 2017)
